From patent US20220160617A1, “COMPOSITIONS AND METHODS FOR IMPROVING SKIN HEALTH AND FOR THE TREATMENT AND PREVENTION OF DISEASES, DISORDERS AND CONDITIONS ASSOCIATED WITH PATHOGENIC MICROBES” (DermBiont, Inc., priority 2019, published 2022)
≈ marks a conversion by molar mass, not a printed value. Where two headings read alike, the source gives them in different places. Where a SMILES comes first, the peptide text is derived from it. Bridges are numbered along the chain shown (N, C = ends). [ ]: non-standard residue; d: D form. The star is where a group is joined. Ileψ(thiazoline)Cys = CC[C@H](C)[C@H](N)C1=N[C@H](C(=O)*)CS1; dOrn = NCCC[C@@H](N)C(=O)O

Tests used:
[1] = tested on: E. Coli ATCC25922; settings: cited from earlier work
[2] = tested on: Janthinobacterium lividum strains; assay: Antibiotic MIC tests, sensitivity summary; assay type: cell-based
Description: (§1) The antibiotic resistance profile and MICs tests were performed using Janthinobacterium lividum grown from cultures purified and grown in vegitone LB broth.

[3] = tested on: Janthinobacterium lividum strains; assay: Internal antibiotic resistance test (BD BBL Sensi-Disc zone of inhibition); assay type: cell-based; settings: all 5 strains; disc content per antibiotic
Description: One Janthinobacterium lividum colony of 3-day old grown in 50% BHI agar was mixed well in 1 ml of 1×PBS buffer, diluted 10× and 100×, respectively. 200 μl of diluted Janthinobacterium lividum cells were evenly plated onto R2A/BHI agar plates in triplicate in 150 mm petri dishes. Antibiotic discs (BD BBL Sensi-Disc antimicrobial susceptibility test discs) were dispensed using a Disc dispenser (BD BBL Sensi-Disc Designer Dispenser System, 12-Place). Plates were incubated for 2-3 days at room temperature and imaged at the end of incubation.
The sensitivity of Janthinobacterium lividum to antibiotics is reflected by a clear zone of inhibition of Janthinobacterium lividum cells surrounding the antibiotic discs. The zone of inhibition was measured using ImageJ and was transformed into cm for analysis.

[4] = tested on: Janthinobacterium lividum DB02378; assay: Antibiotic MIC test; assay type: cell-based
Description: as §1

[5] = tested on: Janthinobacterium lividum DB00118; assay: Antibiotic MIC test; assay type: cell-based
Description: as §1

[6] = tested on: E. Coli ATCC25922; assay: Antibiotic MIC test; assay type: cell-based
[7] = tested on: Janthinobacterium lividum DB00121; assay: Antibiotic MIC test; assay type: cell-based
Description: as §1

[8] = tested on: Janthinobacterium lividum DB02473; assay: Antibiotic MIC test; assay type: cell-based
Description: as §1

[9] = tested on: fungal or bacterial pathogens; assay type: cell-based
[10] = tested on: Janthinobacterium lividum (DBI001); assay: Biolog Phenotype MicroArray: components enhancing growth of Janthinobacterium in media; assay type: cell-based
[11] = Janthinobacterium lividum, DB02378
[12] = Janthinobacterium lividum, DB00121
[13] = components for enhancing function of human-derived Janthinobacterium lividum

In the case of CO/N=C(\C(=O)N[C@@H]1C(=O)N2C(C(=O)O)=C(CSc3nc(=O)c(=O)[nH]n3C)CS[C@H]12)c1csc(N)n1 [Ceftriaxone], the “MIC, CLSI QC ranges” value [1] is listed as 0.03 to 0.12 µg/mL.
For C[C@H]1[C@H](NC(=O)/C(=N\OC(C)(C)C(=O)O)c2csc(N)n2)C(=O)N1S(=O)(=O)O [Aztreonam], the “MIC, CLSI QC ranges” value [1] is listed as 0.06 to 0.25 µg/mL and the “sensitivity of Janthinobacterium lividum strains to antibiotic” value [2] is listed as “less sensitive”.
With CN[C@H](CC(C)C)C(=O)N[C@H]1C(=O)N[C@@H](CC(N)=O)C(=O)N[C@H]2C(=O)N[C@H]3C(=O)N[C@H](C(=O)N[C@H](C(=O)O)c4cc(O)cc(O)c4-c4cc3ccc4O)[C@H](O)c3ccc(c(Cl)c3)Oc3cc2cc(c3O[C@@H]2O[C@H](CO)[C@@H](O)[C@H](O)[C@H]2O[C@H]2C[C@](C)(N)[C@H](O)[C@H](C)O2)Oc2ccc(cc2Cl)[C@H]1O [vancomycin] the “sensitivity of Janthinobacterium lividum to antibiotic disc” value (from here on “sensitivity … to antibiotic disc”) [3] was “sensitive”.
CN(C)c1ccc(O)c2c1C[C@H]1C[C@H]3[C@H](N(C)C)C(O)=C(C(N)=O)C(=O)[C@@]3(O)C(O)=C1C2=O [Minocycline] gave an MIC [4, 11] of 0.125 µg/mL (≈ 0.273 µM) and an MIC ([5]; Janthinobacterium lividum, DB00118) of 0.125 µg/mL (≈ 0.273 µM).
For penicillin, the “sensitivity … to antibiotic disc” value [3] was “sensitive”.
With Neomycin the MIC [6] was 2 µg/mL, the MIC ([7]; strain DB00121) was 1 µg/mL and the MIC ([4]; strain DB02378) was 2 µg/mL. The MIC ([5]; strain DB00118) was 2 µg/mL and the MIC ([8]; strain DB02473) was 2 µg/mL.
For O=C(N[C@H](CO)[C@H](O)c1ccc([N+](=O)[O-])cc1)C(Cl)Cl [Chloramphenicol], the “MIC, CLSI QC ranges” value [1] is given as 2 to 8 µg/mL, the “sensitivity of Janthinobacterium lividum strains to antibiotic” value [2] is given as “less sensitive” and the “sensitivity … to antibiotic disc” value [3] is given as “sensitive”.
For CO/N=C(\C(=O)N[C@@H]1C(=O)N2C(C(=O)[O-])=C(C[N+]3(C)CCCC3)CS[C@H]12)c1csc(N)n1 [Cefepime], the “MIC, CLSI QC ranges” value [1] is listed as 0.016 to 0.12 µg/mL, the MIC [7, 12] is listed as 0.125 µg/mL (≈ 0.26 µM) and the MIC [4, 11] is listed as 0.125 µg/mL (≈ 0.26 µM). For the same molecule, the MIC ([8]; Janthinobacterium lividum, DB02473) was 0.125 µg/mL (≈ 0.26 µM).
Amoxicillin clavulanate showed an MIC [6] of 8 µg/mL, an MIC ([7]; strain DB00121) of 0.5 µg/mL and an MIC ([4]; strain DB02378) of 1 µg/mL. The MIC ([5]; strain DB00118) was 1 µg/mL, the MIC ([8]; strain DB02473) was 1 µg/mL and the “sensitivity of Janthinobacterium lividum strains to antibiotic” value [2] was “less sensitive”.
With C[C@H]1COc2c(N3CCN(C)CC3)c(F)cc3c(=O)c(C(=O)O)cn1c23 [Levofloxacin] the MIC [7, 12] was 0.125 µg/mL (≈ 0.346 µM).
For CC[C@H](C)[C@H](N)C1=N[C@H](C(=O)N[C@@H](CC(C)C)C(=O)N[C@H](CCC(=O)O)C(=O)N[C@H](C(=O)N[C@H]2CCCCNC(=O)[C@H](CC(N)=O)NC(=O)[C@@H](CC(=O)O)NC(=O)[C@H](Cc3cnc[nH]3)NC(=O)[C@@H](Cc3ccccc3)NC(=O)[C@H]([C@@H](C)CC)NC(=O)[C@@H](CCCN)NC2=O)[C@@H](C)CC)CS1 [Bacitracin] ({Ileψ(thiazoline)Cys}-L[dE]IK[dOrn]I[dF]H[dD]N; lactam 4-C), the “sensitivity of Janthinobacterium lividum strains to antibiotic” value [2] was “resistant”.
For CC(=O)OCC1=C(C(=O)O)N2C(=O)[C@@H](NC(=O)Cc3cccs3)[C@H]2SC1 [cephalothin], the “sensitivity … to antibiotic disc” value [3] was “sensitive”.
For CCC[C@@H]1C[C@@H](C(=O)N[C@@H]([C@H]2O[C@H](SC)[C@H](O)[C@@H](O)[C@H]2O)[C@H](C)Cl)N(C)C1 [Clindamycin], the MIC ([6]; Escherichia coli, read-out: MIC) was over 64 µg/mL.
For NCC[C@H](O)C(=O)N[C@@H]1C[C@H](N)[C@@H](O[C@H]2O[C@H](CN)[C@@H](O)[C@H](O)[C@H]2O)[C@H](O)[C@H]1O[C@H]1O[C@H](CO)[C@@H](O)[C@H](N)[C@H]1O [Amikacin], the “MIC, CLSI QC ranges” value [1] is listed as 0.5 to 4 µg/mL.
For OC[C@H]1O[C@@H]2O[C@H]3[C@H](O)[C@@H](O)[C@@H](O[C@H]4[C@H](O)[C@@H](O)[C@@H](O[C@H]5[C@H](O)[C@@H](O)[C@@H](O[C@H]6[C@H](O)[C@@H](O)[C@@H](O[C@H]7[C@H](O)[C@@H](O)[C@@H](O[C@H]8[C@H](O)[C@@H](O)[C@@H](O[C@H]1[C@H](O)[C@H]2O)O[C@@H]8CO)O[C@@H]7CO)O[C@@H]6CO)O[C@@H]5CO)O[C@@H]4CO)O[C@@H]3CO [β-Cyclodextrin], the “Concentration Range of Efficacy” value [9, 13] was 1 to 5 mM.
In the case of C[C@@H](O)[C@H]1C(=O)N2C(C(=O)O)=C(S[C@@H]3CN[C@H](C(=O)N(C)C)C3)[C@H](C)[C@H]12 [Meropenem], the “MIC, CLSI QC ranges” value [1] is listed as 0.008 to 0.06 µg/mL and the “sensitivity of Janthinobacterium lividum strains to antibiotic” value [2] is listed as “less sensitive”.
For Tween 40, the “Concentration Range of Efficacy” value [9, 13] was 2 to 20 mM and the “improvement of growth of human-derived Janthinobacterium lividum” value [10] was “improve the growth”.
In the case of CC1(C)S[C@@H]2[C@H](NC(=O)[C@H](N)c3ccccc3)C(=O)N2[C@H]1C(=O)O [ampicillin], the “sensitivity … to antibiotic disc” value [3] is reported as “sensitive”.
For CO[C@@H]1O[C@H](CO)[C@@H](O)[C@H](O)[C@H]1O [β-Methyl-D-Glucoside], the “Concentration Range of Efficacy” value [9, 13] was 2 to 20 mM.
In the case of OC[C@@H](O)[C@@H](O)[C@H](O)[C@H](O)CO [D-Mannitol], the “improvement of growth of human-derived Janthinobacterium lividum” value [10] is reported as “improve the growth”.
In the case of N[C@@H](C(=O)O)[C@@H](O)[C@H](O)[C@H](O)CO [D-Glucosaminic Acid], the “Concentration Range of Efficacy” value [9, 13] is reported as 2 to 20 mM.
With O=[N+]([O-])O [Nitrate] the “Concentration Range of Efficacy” value [9] was 0.1 to 1 mM.
With CC[C@H]1OC(=O)[C@H](C)[C@@H](O[C@H]2C[C@@](C)(OC)[C@@H](O)[C@H](C)O2)[C@H](C)[C@@H](O[C@@H]2O[C@H](C)C[C@H](N(C)C)[C@H]2O)[C@](C)(O)C[C@@H](C)C(=O)[C@H](C)[C@@H](O)[C@]1(C)O [Erythromycin] the “sensitivity … to antibiotic disc” value [3] was “sensitive”.
With O=C(O)c1cn(C2CC2)c2cc(N3CCNCC3)c(F)cc2c1=O [Ciprofloxacin] the “sensitivity … to antibiotic disc” value [3] was “sensitive”.
In the case of Inulin, the “Concentration Range of Efficacy” value [9, 13] is reported as 1 to 5 mM.
For O=P(O)(O)OCC(O)CO (racemic) [D,L-α-Glycerol Phosphate], the “Concentration Range of Efficacy” value [9, 13] was 2 to 20 mM.
With O=C(O)[C@@H](O)[C@H](O)C(=O)O [D-Tartaric acid] the “Concentration Range of Efficacy” value [9, 13] was 1 to 5 mM.
For Nc1ncnc2c1ncn2C1CC(O)C(CO)O1 (centres unmarked) [2-Deoxy Adenosine], the “Concentration Range of Efficacy” value [9, 13] was 2 to 20 mM.
In the case of O=C1CCC(C(=O)O)O1 (stereo not drawn) [α-Hydroxy Glutaric Acid-g-Lactone], the “Concentration Range of Efficacy” value [9, 13] is reported as 2 to 20 mM.
With OC[C@H]1O[C@H](OC[C@H]2O[C@H](OC[C@H]3O[C@H](O[C@]4(CO)O[C@H](CO)[C@@H](O)[C@@H]4O)[C@H](O)[C@@H](O)[C@@H]3O)[C@H](O)[C@@H](O)[C@H]2O)[C@H](O)[C@@H](O)[C@H]1O [Stachyose] the “Concentration Range of Efficacy” value [9, 13] was 1 to 5 mM.
In the case of OC[C@@]12OC[C@@H](O1)[C@@H](O)[C@@H](O)[C@@H]2O [Sedoheptulosan], the “Concentration Range of Efficacy” value [9, 13] is reported as 1 to 5 mM.
In the case of OC[C@H]1O[C@H](OCC2O[C@@H](O)[C@H](O)[C@@H](O)[C@@H]2O)[C@H](O)[C@@H](O)[C@H]1O (stereo partly drawn) [D-Melibiose], the “Concentration Range of Efficacy” value [9, 13] is reported as 2 to 20 mM.
In the case of OC[C@@H](O)[C@H](O)[C@H](O)[C@@H](O)CO [Dulcitol], the “Concentration Range of Efficacy” value [9, 13] is reported as 2 to 20 mM.
For OC[C@@H](O)[C@@H](O[C@H]1O[C@H](CO)[C@@H](O)[C@H](O)[C@H]1O)[C@H](O)[C@@H](O)CO [Maltitol], the “Concentration Range of Efficacy” value [9, 13] was 1 to 5 mM.
With [H]/N=C(/N)N[C@H]1[C@H](O)[C@@H](O)[C@H](O[C@@H]2O[C@@H](C)[C@](O)(C=O)[C@H]2O[C@@H]2O[C@@H](CO)[C@H](O)[C@@H](O)[C@@H]2NC)[C@@H](N/C(N)=N\[H])[C@@H]1O [streptomycin] the “sensitivity … to antibiotic disc” value [3] was “sensitive”.
For O=P(O)(O)O[C@H]1O[C@H](CO)[C@@H](O)[C@H](O)[C@H]1O [D-Glucose-1-Phosphate], the “Concentration Range of Efficacy” value [9, 13] was 2 to 20 mM.
With O=C(CO)[C@@H](O[C@H]1O[C@H](CO)[C@@H](O)[C@H](O)[C@H]1O)[C@H](O)[C@H](O)CO [Turanose] the “Concentration Range of Efficacy” value [9, 13] was 1 to 5 mM.
With CO[C@@H]1O[C@H](C(=O)O)[C@@H](O)[C@H](O)[C@H]1O [β-Methyl-D-Glucuronic Acid] the “Concentration Range of Efficacy” value [9, 13] was 1 to 5 mM.
